Data reported in the supplement of paper PMC6470124.

Assays:
[1] = absolute recovery over vacuum-assisted evaporative concentration; higher = better recovery; details: enrichment method: VEC
Procedure, shortened: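 Absolute recovery was calculated as (response ratio pre − unspiked)/(post − unspiked) × 100 from averages of ≥ 2 replicates. Influent (6 mL), effluent (15 mL), and surface and nanopure water (60 mL) samples were spiked with standards before concentration, after concentration, or not at all, at 200 ng/L for nanopure and surface water or 1000 ng/L for wastewater, with class- and compound-specific adjustments. Samples were evaporated at 55 °C and 20 mbar to about 0.3 mL, made up to 0.4 mL and centrifuged, then internal standards were added before LC-HRMS/MS analysis.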

[2] = absolute recovery over mixed-bed multilayer solid-phase extraction; higher = better recovery; details: enrichment method: SPE
Procedure, shortened: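 Elution from a three-layer mixed-bed cartridge used basic followed by acidic ethyl acetate/methanol, after loading either 1000 mL of unfiltered nanopure water or 100–250 mL of wastewater that had been set to pH 6.5 and glass-fibre filtered. Standards went in before or after extraction, or were left out, at 200 ng/L (water) or 1000 ng/L (wastewater), with class exceptions. Internal standards were added afterwards, and measurement was by liquid chromatography with high-resolution tandem mass spectrometry in both ionisation modes. For absolute recovery, background-corrected response ratios of pre-spiked samples were compared with those of post-spiked samples and averaged over at least two replicates.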

[3] = LC retention time (Atlantis T3, 5-95% MeOH gradient, 0.1% formic acid); higher = more retained / less polar
Procedure, shortened: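 Retention times refer to reference standards measured by liquid chromatography with high-resolution tandem mass spectrometry. Separation was on an Atlantis T3 C18 column (3 × 150 mm, 3 μm) at 0.3 mL/min with a 5 to 95% methanol gradient over 17.5 min, both solvents carrying 0.1% formic acid. Positive and negative electrospray were run separately on a QExactive Plus, and TraceFinder peak integration (5 ppm tolerance, at least three points per peak) was reviewed by hand.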

SMILES | absolute recovery ([1]; wastewater effluent) | absolute recovery ([1]; wastewater influent) | absolute recovery ([2]; nanopure water) | absolute recovery ([2]; surface water) | absolute recovery ([2]; wastewater effluent) | absolute recovery ([2]; wastewater influent) | LC retention time [3]
CC(C)N(C(=O)COc1nnc(C(F)(F)F)s1)c1ccc(F)cc1 [Flufenacet] | 114% | 95.3% | 100% | 95.9% | 97.5% | 83.5% | 20.1 min
O=C([O-])c1ccccc1Nc1cccc(C(F)(F)F)c1 [Flufenamic-Acid] | 101% | 103% | 130% | 106% | 87.9% | – | 21.6 min
O=C(NCc1ncc(C(F)(F)F)cc1Cl)c1c(Cl)cccc1Cl [Fluopicolide] | 115% | 109% | 95.7% | 104% | 97.2% | 93.4% | 19.6 min
O=C(NCCc1ncc(C(F)(F)F)cc1Cl)c1ccccc1C(F)(F)F [Fluopyram] | 105% | 54.9% | 101% | 93.4% | 93% | 102% | 19.9 min
CON=C(C1=NOCCO1)c1ccccc1Oc1ncnc(Oc2ccccc2Cl)c1F [Fluoxastrobin] | 94.1% | 112% | 97.5% | 80.2% | 90.4% | 83% | 19.8 min
C[NH2+]CCC(Oc1ccc(C(F)(F)F)cc1)c1ccccc1 (stereo not drawn) [Fluoxetin] | 91.1% | 91.9% | 79.8% | 90.2% | 85.5% | 82.8% | 16.2 min
COC(=O)c1ccc(C(F)(F)F)nc1S(=O)(=O)[N-]C(=O)Nc1nc(OC)cc(OC)n1 [Flupyrsulfuron-methyl-] | 65.8% | 59.1% | 98.2% | 97.5% | 93.6% | 89.3% | 19.2 min
O=C1C(Cl)C(CCl)CN1c1cccc(C(F)(F)F)c1 (stereo not drawn) [Flurochloridon] | 92% | 60.5% | 98.1% | 104% | 106% | 98% | 19.9 min
Nc1c(Cl)c(F)nc(OCC(=O)[O-])c1Cl [Fluroxypyr (free acid)] | 104% | 95.6% | 97% | 95.8% | 91.7% | 89.2% | 17.1 min
C[Si](Cn1cncn1)(c1ccc(F)cc1)c1ccc(F)cc1 [Flusilazol] | 114% | 107% | 103% | – | 99.5% | 82.4% | 20.4 min
CC(C)Oc1cccc(NC(=O)c2ccccc2C(F)(F)F)c1 [Flutolanil] | 94% | 103% | 104% | 104% | 95.7% | 98% | 19.5 min
CCC(=O)OC(OP(=O)(CCCCc1ccccc1)CC(=O)N1CC(C2CCCCC2)CC1C(=O)[O-])C(C)C (stereo not drawn) [Fosinopril] | 90.6% | 36.6% | 97.7% | 22% | 51.5% | 96.2% | 23.1 min
NS(=O)(=O)c1cc(C(=O)[O-])c(NCc2ccco2)cc1Cl [Furosemid] | 101% | 97.9% | 77.3% | – | 78.8% | 87.3% | 16.2 min
[NH3+]CC1(CC(=O)[O-])CCCCC1 [Gabapentin] | 99.5% | 98.3% | 20.3% | – | – | – | 10.4 min
CC1COC(=O)c2cc3c(cc21)C(C)(C)C(C)C3(C)C (stereo not drawn) [Galaxolidon] | 61.8% | 63.2% | 103% | 104% | 86.1% | 108% | 22.2 min
Nc1ccn(C2OC(CO)C(O)C2(F)F)c(=O)n1 (stereo not drawn) [Gemcitabin] | 88.8% | 12.8% | 86.7% | 94.5% | 94.3% | 91.1% | 6.58 min
O=c1c(-c2ccc(O)cc2)coc2cc([O-])cc(O)c12 [Genistein] | 93% | 89.9% | 99.2% | 103% | 99.5% | 93.3% | 17.9 min
CC(Oc1ccc(Oc2ncc(C(F)(F)F)cc2Cl)cc1)C(=O)[O-] (stereo not drawn) [Haloxyfop] | 102% | 95.4% | 84.3% | 73.9% | 84.4% | 95.4% | 21 min
CN(C)c1nc(=O)n(C2CCCCC2)c(=O)n1C [Hexazinon] | 106% | 92.6% | 96.4% | 93.7% | 94.3% | 88.8% | 17.2 min
NS(=O)(=O)c1cc2c(cc1Cl)NCNS2(=O)=O [Hydrochlorothiazid] | 104% | 100% | 96.7% | 98.2% | 89.1% | 91.7% | 10.2 min
COc1ccc2c3c1OC1C(=O)CCC4C(C2)[NH+](C)CCC314 (stereo not drawn) [Hydrocodone] | 103% | 100% | 82.5% | 89.4% | 93.1% | 89.3% | 9.79 min
CC12CCC(=O)C=C1CCC1C2C(O)CC2(C)C1CCC2(O)C(=O)CO (stereo not drawn) [Hydrocortison] | 102% | 57.5% | 86.5% | 80.2% | 80.9% | 94% | 18 min
CCCCNC(=O)OCC#CI [IPBC (=Iodocarb)] | 60.1% | – | 97.8% | 79.9% | 72.2% | 74.3% | 18.1 min
CC(C)Cc1ccc(C(C)C(=O)[O-])cc1 (stereo not drawn) [Ibuprofen] | 98.5% | – | 84.5% | – | 118% | – | 21 min
O=P1(NCCCl)OCCCN1CCCl (stereo not drawn) [Ifosfamid] | 102% | 99.2% | 109% | 99.4% | 92.9% | 89.1% | 15.5 min
COCc1cnc(C2=NC(C)(C(C)C)C(=O)N2)c(C(=O)[O-])c1 (stereo not drawn) [Imazamox] | 104% | 94.7% | 92.3% | 93.4% | 90.7% | 90.4% | 15.1 min

SMILES | absolute recovery ([1]; wastewater effluent) | absolute recovery ([1]; wastewater influent) | absolute recovery ([2]; nanopure water) | absolute recovery ([2]; surface water) | absolute recovery ([2]; wastewater effluent) | absolute recovery ([2]; wastewater influent) | LC retention time [3]
NC1=[NH+]CCN1Cc1ccc(Cl)nc1 [Imidacloprid-desnitro] | 107% | 103% | 113% | 110% | 104% | 106% | 8.99 min
O=C1NCCN1Cc1ccc(Cl)nc1 [Imidacloprid-urea] | 108% | 104% | 117% | 108% | 103% | 94.9% | 13.2 min
O=[N+]([O-])N=C1NCCN1Cc1ccc(Cl)nc1 [Imidacloprid] | 103% | 98.6% | 97.8% | 96.7% | 95.4% | 91.9% | 13.4 min
C1=Cc2ccccc2Nc2ccccc21 [Iminostilben] | 22.9% | 37.9% | 90.1% | 82.6% | 79.4% | 89% | 20 min
COc1ccc2c(c1)c(CC(=O)[O-])c(C)n2C(=O)c1ccc(Cl)cc1 [Indomethacin] | 104% | 98.9% | 93.9% | 95% | 91.2% | 91.5% | 20.8 min
CC(=O)N(CC(O)CN(C(C)=O)c1c(I)c(C(=O)NCC(O)CO)c(I)c(C(=O)NCC(O)CO)c1I)c1c(I)c(C(=O)NCC(O)CO)c(I)c(C(=O)NCC(O)CO)c1I (stereo not drawn) [Iodixanol] | 149% | – | 102% | – | – | – | 10.7 min
COC(=O)c1ccc(I)cc1S(=O)(=O)[N-]C(=O)Nc1nc(C)nc(OC)n1 [Iodosulfuron-methyl] | 116% | 102% | 107% | 96.8% | 101% | 92.8% | 19 min
CC(=O)N(CC(O)CO)c1c(I)c(C(=O)NCC(O)CO)c(I)c(C(=O)NCC(O)CO)c1I (stereo not drawn) [Iohexol] | 102% | 98.3% | 68.2% | 73.1% | 66.4% | 56.8% | 8.81 min
CN(C(=O)CO)c1c(I)c(C(=O)NCC(O)CO)c(I)c(C(=O)NCC(O)CO)c1I (stereo not drawn) [Iomeprol] | 109% | 108% | 73.5% | 67.8% | 66.5% | 52.4% | 8.92 min
CC(O)C(=O)Nc1c(I)c(C(=O)NC(CO)CO)c(I)c(C(=O)NC(CO)CO)c1I (stereo not drawn) [Iopamidol] | 107% | 103% | 59.6% | 64.5% | 70% | 53% | 7.78 min
COCC(=O)Nc1c(I)c(C(=O)NCC(O)CO)c(I)c(C(=O)N(C)CC(O)CO)c1I (stereo not drawn) [Iopromid] | 108% | 90.1% | 86.3% | 79.5% | – | 65.9% | 10.1 min
O=C(NCC(O)CO)c1c(I)c(C(=O)NCC(O)CO)c(I)c(N(CCO)C(=O)CO)c1I (stereo not drawn) [Ioversol] | 83.7% | 86.5% | 55.7% | – | 57.2% | 36% | 7.88 min
CC(=O)Nc1c(I)c(C(=O)[O-])c(I)c(C(=O)NCCO)c1I [Ioxitalamic-acid] | 103% | 101% | 59.6% | 65.7% | 76% | 61.4% | 9.16 min
N#Cc1cc(I)c([O-])c(I)c1 [Ioxynil] | 106% | 111% | 103% | 102% | 99.4% | 96.2% | 19.3 min
Cc1ccc(C(C)NC(=O)C(NC(=O)OC(C)C)C(C)C)cc1 (stereo not drawn) [Iprovalicarb] | 89.8% | 92.3% | 96.4% | 85.1% | 85.2% | 98.8% | 20.1 min
CSc1nc(N)nc(NC(C)(C)C)n1 [Irgarol-descyclopropyl] | 106% | 115% | 107% | 100% | 101% | 79% | 16.3 min
CSc1nc(NC2CC2)nc(NC(C)(C)C)n1 [Irgarol] | 98% | 95.5% | 101% | 98.8% | 97% | 91.2% | 19 min
CC(C)c1ccc(NC(N)=O)cc1 [Isoproturon-didemethyl (=1-(4-Isoprophenyl)urea)] | 102% | 103% | 99.9% | 94.1% | 95.4% | 95.4% | 17.7 min
CNC(=O)Nc1ccc(C(C)C)cc1 [Isoproturon-monodemethyl (=1-(4-Isoprophenyl)-3-methylurea)] | 105% | 101% | 96.3% | 93.3% | 94.1% | 98.9% | 18.3 min
CC(C)c1ccc(NC(=O)N(C)C)cc1 [Isoproturon] | 102% | 103% | 98.5% | 97.4% | 97% | 92.5% | 18.5 min
CCOC(=O)C1=NOC(c2ccccc2)(c2ccccc2)C1 [Isoxadifen-ethyl] | 26.4% | – | 82.7% | 93.3% | 103% | 62.5% | 20.6 min
CS(=O)(=O)c1cc(C(F)(F)F)ccc1C(=O)c1cnoc1C1CC1 [Isoxaflutole] | 74.8% | – | 19.2% | 21.8% | 22.8% | 35.1% | 18.3 min
C[NH2+]C1(c2ccccc2Cl)CCCCC1=O (stereo not drawn) [Ketamin] | 101% | 105% | 83.7% | 82.3% | 82.9% | 90.4% | 11.7 min
CC(=O)N1CCN(c2ccc(OCC3COC(Cn4cc[nH+]c4)(c4ccc(Cl)cc4Cl)O3)cc2)CC1 (stereo not drawn) [Ketoconazol] | 71.5% | – | 80.2% | 62.2% | 66.4% | 85.8% | 16 min
CON=C(C(=O)[O-])c1ccccc1COc1ccccc1C [Kresoxim-methyl-acid] | 97.4% | 134% | 85.5% | 71.8% | 81.5% | 89.8% | 20.1 min
